Source: patent publication US7872036B2, “3-triazolylphenyl sulfide derivative and insecticide, miticide and nematicide containing it as an active ingredient” (Kumiai Chemical Industry Co., Ltd., priority 2004, dated 2011)

How the values were obtained:
brown planthoppers = assay: Insecticidal test on brown planthoppers; type: in vivo, Nilaparvata lugens; settings: active ingredient 500 ppm, germinating rice immersed, 4th-instar larvae, 25° C., 6 days
Protocol: Wettable powders were prepared in accordance with Formulation Example 2 and diluted with water to an active ingredient concentration of 500 ppm. Germinating rice was immersed in the resulting solutions and put in a plastic cup with a capacity of 60 ml. Ten 4th-instar larvae of brown planthoppers were released to the cup, and the cup was covered and placed in a thermostatic chamber at 25° C. for 6 days, and the survivors were counted for calculation of the insecticidal degree by using Equation 1. The test was carried out by one series system.

[1] = system: southern root-knot nematodes; assay: Nemastatic test on southern root-knot nematodes; type: in vivo, Meloidogyne sp.; settings: diluted solution 20 ppm mixed 1:1 with suspension of second stage larvae, 25° C., 5 days
Protocol: Compounds of the present invention (5 parts) and Tween 20 (tradename for polyoxyethylene sorbitan monolaurate) (1 part) as a spreader were dissolved n N,N-dimethylformamide (94 parts) to prepare 5% emulsifiable concentrates of the compounds of the present invention. Distilled water was added to the emulsifiable concentrates to prepare diluted solutions having a concentration of the compounds of the present invention of 20 ppm. 0.5 ml of the diluted solutions and 0.5 ml of water suspensions containing 100 second stage larvae of southern root-knot nematodes were mixed, and the mixture were placed in a thermostatic chamber at 25° C. for 5 days, and the survivors were counted for calculation of the nemastatic degree by using Equation 3. The test was carried out by two series system.

SMILES | Insecticidal degree (%) (brown planthoppers) | Nemastatic degree (%) [1]
Cc1cc(F)c(-n2nc(C(F)(F)F)nc2NN)cc1[S+]([O-])CC(F)(F)F (centres unmarked) [Compound 163] | 100% | 
Cc1cc(F)c(-n2nc(SCC#N)nc2N)cc1SCC(F)(F)F [Compound 140] |  | 99%
Cc1cc(F)c(-n2nc(SC(F)F)nc2N)cc1SCC(F)(F)F [Compound 27] | 100% | 100%
Cc1cc(F)c(-n2nc(C(F)(F)F)nc2NC(=O)NC(C)C)cc1SCC(F)(F)F [Compound 201] | 100% | 
CCS(=O)(=O)c1nc(N)n(-c2cc([S+]([O-])CC(F)(F)F)c(C)cc2F)n1 (centres unmarked) [Compound 26] | 90% | 
CCc1nc(N)n(-c2cc(SCC(F)(F)F)c(C)cc2F)n1 [Compound 116] |  | 97%
Cc1cc(F)c(-n2nc(C(F)(F)F)nc2C(N)=O)cc1[S+]([O-])CC(F)(F)F (racemic) [Compound 208] |  | 100%
Cc1ccc(-n2nc(C(F)(F)F)nc2N)cc1SCC(F)(F)F [Compound 124] | 100% | 100%
Cc1cc(F)c(-n2nc(C(F)(F)F)nc2N(C)N)cc1SCC(F)(F)F [Compound 170] | 100% | 100%
Cc1cc(F)c(-n2nc(C(F)(F)C(F)(F)C(F)(F)F)nc2N)cc1SCC(F)(F)F [Compound 174] | 90% | 100%
CCNc1nc(C(F)(F)F)nn1-c1cc(SCC(F)(F)F)c(C)cc1F [Compound 59] | 100% | 100%
CCC(=O)Nc1nc(C(F)(F)F)nn1-c1cc(SCC(F)(F)F)c(C)cc1F [Compound 186] | 100% | 
Cc1cc(F)c(-n2nc(SCC(F)(F)F)nc2N)cc1SCC(F)(F)F [Compound 130] |  | 100%
CNc1nc(C(F)(F)F)nn1-c1cc(SCC(F)(F)F)c(C)cc1F [Compound 39] | 100% | 100%
C#CCNc1nc(SC(F)(F)C(F)(F)F)nn1-c1cc(SCC(F)(F)F)c(C)cc1F [Compound 193] | 100% | 100%
CCc1nc(N)n(-c2cc(SCC(F)(F)F)c(C)cc2F)n1 [Compound 49] | 100% | 
Cc1cc(F)c(-n2nc(SC(F)(F)C(F)(F)F)nc2N)cc1SCC(F)(F)F [Compound 176] | 90% | 97%
CCN(CC)c1nc(C(F)(F)F)nn1-c1cc(SCC(F)(F)F)c(C)cc1F [Compound 128] | 100% | 
C#CCNc1nc(SCC(F)(F)F)nn1-c1cc(SCC(F)(F)F)c(C)cc1F [Compound 184] | 100% | 
Cc1cc(F)c(-n2nc(C(F)(F)F)nc2NCC#N)cc1[S+]([O-])CC(F)(F)F (centres unmarked) [Compound 165] | 100% | 
Nc1nc(C(F)(F)F)nn1-c1ccc(Cl)c(SCC(F)(F)F)c1 [Compound 126] |  | 94%
Cc1cc(F)c(-n2nc(C(C(F)(F)F)C(F)(F)F)nc2N)cc1SCC(F)(F)F [Compound 182] |  | 91%
CNC(=O)Nc1nc(C(F)(F)F)nn1-c1cc(SCC(F)(F)F)c(C)cc1F [Compound 168] | 100% | 100%
Cc1cc(F)c(-n2nc(SC(F)(F)F)nc2N)cc1SCC(F)(F)F [Compound 31] | 100% | 100%
Cc1cc(F)c(-n2nc(C(F)(F)F)nc2NC(=O)CCl)cc1SCC(F)(F)F [Compound 189] | 100% | 
CNc1nc(C(F)(F)F)nn1-c1cc(SCC(F)(F)F)c(C)cc1Cl [Compound 97] |  | 97%

SMILES | Insecticidal degree (%) (brown planthoppers) | Nemastatic degree (%) [1]
Cc1cc(F)c(-n2nc(C(F)(F)C(F)(F)C(F)(F)F)nc2N)cc1[S+]([O-])CC(F)(F)F (racemic) [Compound 175] |  | 97%
CCC[S+]([O-])c1nc(N)n(-c2cc([S+]([O-])CC(F)(F)F)c(C)cc2F)n1 (centres unmarked) [Compound 137] | 100% | 
C#CCSc1nc(N)n(-c2cc(SCC(F)(F)F)c(C)cc2F)n1 [Compound 148] | 100% | 99%
Cc1cc(F)c(-n2nc(C(F)(F)F)nc2C#N)cc1SCC(F)(F)F [Compound 209] |  | 100%
CNc1nc(SC(F)(F)C(F)(F)F)nn1-c1cc(SCC(F)(F)F)c(C)cc1F [Compound 101] | 100% | 98%
COC(=O)c1nc(C(F)(F)F)nn1-c1cc(SCC(F)(F)F)c(C)cc1F [Compound 203] |  | 92%
Cc1cc(F)c(-n2nc(C(F)(F)F)nc2NC(=O)C(F)F)cc1[S+]([O-])CC(F)(F)F (racemic) [Compound 200] | 100% | 
C#CC[S+]([O-])c1nc(N)n(-c2cc(SCC(F)(F)F)c(C)cc2F)n1 (centres unmarked) [Compound 150] | 100% | 
Cc1cc(F)c(-n2nc(C(C)C)nc2N)cc1SCC(F)(F)F [Compound 110] |  | 97%
Cc1cc(F)c(-n2nc(C(F)(F)F)nc2NC(=O)N(C)C)cc1SCC(F)(F)F [Compound 83] | 10% | 
Cc1nc(N)n(-c2cc(SCC(F)(F)F)c(C)cc2F)n1 [Compound 105] | 90% | 
CC(=O)Nc1nc(C(C)(C)C)nn1-c1cc(SCC(F)(F)F)c(C)cc1F [Compound 112] | 90% | 
CCSc1nc(N)n(-c2cc(SCC(F)(F)F)c(C)cc2F)n1 [Compound 21] |  | 100%
Cc1cc(F)c(-n2nc(S(C)(=O)=O)nc2N)cc1[S+]([O-])CC(F)(F)F (centres unmarked) [Compound 20] | 100% | 92%
CC(=O)Nc1nc(C(F)(F)F)nn1-c1cc(SCC(F)(F)F)c(C)cc1F [Compound 75] | 100% | 94%
Cc1cc(F)c(-n2nc(C(F)(F)F)nc2N)cc1SCC1CC1 [Compound 3] |  | 100%
Cc1cc(F)c(-n2nc(C(F)(F)F)nc2C(N)=O)cc1SCC(F)(F)F [Compound 207] |  | 100%
CC[S+]([O-])c1nc(N)n(-c2cc([S+]([O-])CC(F)(F)F)c(C)cc2F)n1 (centres unmarked) [Compound 24] | 90% | 
CC(=O)N(C)c1nc(SCC(F)(F)F)nn1-c1cc(SCC(F)(F)F)c(C)cc1F [Compound 158] | 90% | 
COC(=O)Nc1nc(C(F)(F)F)nn1-c1cc(SCC(F)(F)F)c(C)cc1F [Compound 79] | 100% | 94%
C#CCNc1nc(C(F)(F)F)nn1-c1cc(SCC(F)(F)F)c(C)cc1F [Compound 65] | 100% | 100%
CNc1nc(C(F)(F)F)nn1-c1cc(SCC(F)(F)F)c(C)cc1C [Compound 146] |  | 98%
Cc1cc(F)c(-n2nc(C(F)(F)F)nc2NCC#N)cc1SCC(F)(F)F [Compound 164] | 100% | 100%
Cc1cc(F)c(-n2nc(C(C)(C)C#N)nc2N)cc1SCC(F)(F)F [Compound 103] |  | 94%
CSc1nc(N)n(-c2cc(SCC(F)(F)F)c(C)cc2F)n1 [Compound 15] |  | 100%
